From US10214512B2, “Factor XIA inhibitors” (MERCK SHARP & DOHME CORP., priority 2015, dated 2019)
Like-named read-outs stand apart in the source and are kept apart here.

How the values were obtained:
[1] = molecular target: purified Human plasma Kallikrein (Homo sapiens (Human), UniProt P03952); experiment: Kallikrein Assay; format: biochemical
In short: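 Purified human plasma kallikrein (0.5 nM) with fluorogenic Ac-K-P-R-AFC ([…]) in 50 mM HEPES pH 7.4, 150 mM NaCl, 5 mM CaCl2, 0.1% PEG 8000, at rt or 37 °C. Substrate hydrolysis rate read with and without inhibitor; IC50 from four-parameter logistic fit, converted to Ki by Cheng–Prusoff.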

[2] = molecular target: purified human Factor XIa (Homo sapiens (Human), UniProt P03951); experiment: Factor XIa Assay; format: biochemical; details: purified human Factor XIa 40 pM; substrate Z-Gly-Pro-Arg-AFC 100 μM; 50 mM HEPES pH 7.4; read-out: Human FXIa Ki
Sequence of purified human Factor XIa (P03951 388-625): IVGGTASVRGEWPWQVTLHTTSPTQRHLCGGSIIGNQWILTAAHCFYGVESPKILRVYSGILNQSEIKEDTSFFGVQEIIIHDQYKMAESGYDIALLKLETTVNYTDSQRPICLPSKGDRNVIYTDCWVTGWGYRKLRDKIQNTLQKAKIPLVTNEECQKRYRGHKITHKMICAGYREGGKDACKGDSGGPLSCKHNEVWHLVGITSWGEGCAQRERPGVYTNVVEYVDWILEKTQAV
Sequence of purified human Factor XIa (P03951 19-387 partner): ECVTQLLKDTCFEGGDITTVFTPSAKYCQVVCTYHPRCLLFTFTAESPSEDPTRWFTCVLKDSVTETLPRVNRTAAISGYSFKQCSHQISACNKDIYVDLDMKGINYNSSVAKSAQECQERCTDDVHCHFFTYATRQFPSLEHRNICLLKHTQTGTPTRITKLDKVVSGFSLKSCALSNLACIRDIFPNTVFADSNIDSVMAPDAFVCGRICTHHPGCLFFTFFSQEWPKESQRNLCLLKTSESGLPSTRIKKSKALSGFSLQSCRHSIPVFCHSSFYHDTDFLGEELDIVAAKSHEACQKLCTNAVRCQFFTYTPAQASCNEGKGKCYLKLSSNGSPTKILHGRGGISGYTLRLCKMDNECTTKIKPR
In short: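 Ki obtained from the dependence of uninhibited/inhibited initial-velocity ratio on inhibitor concentration, under a competitive-inhibition model. Reactions used 100 μM Z-Gly-Pro-Arg-AFC and 40 pM final human Factor XIa in pH 7.4 HEPES buffer with NaCl, CaCl2 and PEG 8000; run at rt or 37° C following pre-equilibration.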

[3] = purified Human plasma Kallikrein 0.5 nM, substrate Acetyl-K-P-R-AFC, 50 mM HEPES pH 7.4, Ki from IC50 by Cheng Prusoff

Sequence of purified Human plasma Kallikrein (P03952 391-638): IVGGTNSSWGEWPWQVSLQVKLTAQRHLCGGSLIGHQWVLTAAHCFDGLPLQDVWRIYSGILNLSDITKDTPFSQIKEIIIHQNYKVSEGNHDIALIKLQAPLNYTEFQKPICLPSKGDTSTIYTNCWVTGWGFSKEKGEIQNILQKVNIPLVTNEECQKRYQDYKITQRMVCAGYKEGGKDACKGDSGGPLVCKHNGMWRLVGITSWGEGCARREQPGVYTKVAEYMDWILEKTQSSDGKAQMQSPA
Sequence of purified Human plasma Kallikrein (P03952 20-390 partner): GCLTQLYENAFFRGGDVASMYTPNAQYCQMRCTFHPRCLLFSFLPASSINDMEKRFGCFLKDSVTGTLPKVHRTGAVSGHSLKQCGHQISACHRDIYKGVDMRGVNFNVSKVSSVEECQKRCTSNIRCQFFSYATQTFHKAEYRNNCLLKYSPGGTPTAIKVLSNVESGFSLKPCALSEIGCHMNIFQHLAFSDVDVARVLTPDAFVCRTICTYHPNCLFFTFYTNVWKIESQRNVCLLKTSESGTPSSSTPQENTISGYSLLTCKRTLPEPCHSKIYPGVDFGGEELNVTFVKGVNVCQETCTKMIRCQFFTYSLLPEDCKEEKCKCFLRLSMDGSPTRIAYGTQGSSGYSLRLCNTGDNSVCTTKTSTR

Row | Structure (SMILES) | Ki [1, 3] [nM] | Ki [2] [nM] | Ki [1] [nM]
1 | COC(=O)Nc1ccc2c(c1)NC(=O)C(C)CCCC(c1ccc(-c3c(F)ccc(Cl)c3F)c[n+]1[O-])c1ccc(F)c-2c1 (single isomer, unassigned) [Example 86-d, 5-(3-Chloro-2,6-difluorophenyl)-2-(1^6-fluoro-2^4-((methoxycarbonyl)amino)-5-methyl-4-oxo-3-aza-1(1,3),2(1,2) -dibenzenacyclononaphane-9-yl)pyridine 1-oxide] | 5.36 | 1.65 | –
2 | C[C@@H]1CCC[C@@H](c2ccc(-c3cc(Cl)ccc3-n3cnnn3)c[n+]2[O-])c2cccc(c2)-c2cc(F)ccc2NC1=O [Example 3-a, 5-(5-chloro-2-(1H-tetrazol-1-yl)phenyl)-2-((5R,9R)-2^5-fluoro-5-methyl-4-oxo-3-aza-1(1,3),2(1,2)-dibenzenacyclononaphane-9-yl)pyridine 1-oxide] | 79.8 | 27.7 | –
3 | O=C1CCCC[C@H](c2ccc(-c3c(F)ccc(Cl)c3F)c[n+]2[O-])c2cccc(c2)-c2ccc(Nc3ncccn3)cc2N1 [Example 48, (S)-5-(3-chloro-2,6-difluorophenyl)-2-(4-oxo-2^4-(pyrimidin-2-YLAMINO)-3-AZA-1 (1,3),2(1,2)-dinenzenacyclononaphane-9-yl)pyridine 1-oxide] | 1.76 | 2.1 | –
4 | O=C(C1CCCCC(c2ccc(-c3cc(Cl)ccc3-n3cnnn3)c[n+]2[O-])c2cccc(c2)-c2cc(F)ccc2N1)N1CCCC1 (single isomer, unassigned) [Example 79-b, 5-(5-Chloro-2-(1H-tetrazol-1-yl)phenyl)-2-(2^5-fluoro-4-(pyrrolidine-1-carbonyl)-3-aza-1(1,3),2(1,2)-dibenzenacyclononaphane-9-yl)pyridine 1-oxide] | 119 | 0.24 | –
5 | COC(=O)Nc1ccc2c(c1)NC(=O)C(C)CCCC(c1ccc(-c3c(F)ccc(Cl)c3F)c[n+]1[O-])c1cccc-2c1 (single isomer, unassigned) [Example 50-a, 5-(3-chloro-2,6-difluorophenyl)-2-(2^4-((methoxycarbonyl)amino)-5-methyl-4-oxo-3-aza-1(1,3),2(1,2)-dinenzenacyclononaphane-9-yl)pyridine 1-oxide] | 1.89 | 0.53 | –
6 | COC(=O)Nc1ccc2c(c1)NC(=O)CCCC[C@H](c1ccc(-c3c(F)ccc(Cl)c3F)c[n+]1[O-])c1cc-2ncn1 (single isomer, unassigned) [Example 75] | 8.42 | 2.7 | –
7 | CC1CCCC(c2ccc(-c3c(-n4cnnn4)ccc(Cl)c3F)c[n+]2[O-])c2cccc(c2)-c2cc(F)ccc2NC1=O (centres unmarked) [Example 8, 5,5-(3-chloro-2-fluoro-6-(1h-tetrazol-1-yl)phenyl)-2-(2^5-fluoro-5-methyl-4-oxo-3-aza-1(1,3),2(1,2)-dibenzenacyclononaphane-9-yl)pyridine 1-oxide] | 1.94 | 0.41 | –
8 | COC(=O)Nc1ccc2c(c1)NC(=O)CCCC[C@H](c1ccc(-c3cc(Cl)ccc3C#N)c[n+]1[O-])c1cccc-2c1 (single isomer, unassigned) [Example 31] | 2.68 | 0.8 | –
9 | C[C@@H]1CCC[C@H](c2ccc(-c3cc(Cl)ccc3-n3cnnn3)c[n+]2[O-])c2cccc(c2)-c2cc(F)ccc2NC1=O [Example 3-d, 5-(5-Chloro-2-(1H-tetrazol-1-yl)phenyl)-2-((5R,9S)-2^5-fluoro-5-methyl-4-oxo-3-aza-1(1,3),2(1,2)-dibenzenacyclononaphane-9-yl)pyridine 1-oxide] | 0.59 | 0.18 | –
10 | O=C1CCCC[C@H](c2ccc(-c3cc(Cl)ccc3-n3cnnn3)cn2)c2cccc(c2)-c2cc(F)ccc2N1 [Example 1-a, (S)-9-(5-(5-Chloro-2-(1H-tetrazol-1-yl)phenyl)pyridin-2-yl)-2^5-fluoro-3-aza-1(1,3),2(1,2)-dibenzenacyclononaphan-4-one] | 205 | 22.3 | –
11 | COC(=O)Nc1ccc2c(c1)NC(=O)CCCC[C@H](c1ccc(-c3c(F)ccc(Cl)c3F)c[n+]1[O-])c1cc-2ccn1 (single isomer, unassigned) [Example 73] | 1.08 | 0.34 | –
12 | COC(=O)Nc1ccc2c(c1)NC(=O)CCCC[C@H](c1ccc(-c3cc(Cl)ccc3-n3cc(C(F)(F)F)cn3)c[n+]1[O-])c1cccc-2c1 (single isomer, unassigned) [Example 40] | 13.7 | 0.46 | –
13 | O=C1CCCCC(c2ccc(-c3cc(Cl)ccc3-n3cnnn3)c[n+]2[O-])c2ccnc(c2)-c2cc(F)ccc2N1 (centres unmarked) [Example 70, 5-(5-chloro-2-(1H-tetrazol-1-yl)phenyl)-2-(2^5-fluoro-4-oxo-3-aza-1(2,4)-pyridina-2(1,2)-benzenacyclononaphane-9-yl)pyridine 1-oxide] | 2.09 | 0.37 | –
14 | O=C1CCCC[C@H](c2ccc(-c3cc(Cl)ccc3-n3cnnn3)c[n+]2[O-])c2cccc(c2)-c2cc(C(=O)O)ccc2N1 [Example 4-a, 2-(2^5-Carboxy-4-oxo-3-aza-1(1,3),2(1,2)-dibenzenacyclononaphane-9-yl)-5-(5-chloro-2-(1H-tetrazol-1-yl)phenyl)pyridine 1-oxide] | – | 0.31 | 3.41
15 | COC(=O)Nc1ccc2c(c1)NC(=O)CCCC[C@H](c1ccc(-c3c(F)ccc(Cl)c3F)c[n+]1[O-])c1cc(F)c(F)c-2c1 (single isomer, unassigned) [Example 69] | 6.79 | 1.87 | –
16 | O=C1CCCCC(c2ccc(-c3cc(F)ccc3-n3cc(Cl)nn3)c[n+]2[O-])c2cccc(c2)-c2cc(F)ccc2N1 (single isomer, unassigned) [Example 90-a, 5-(2-(4-Chloro-1H-1,2,3-triazol-1-yl)-5-fluorophenyl)-2-(2^5-fluoro-4-oxo-3-aza-1(1,3),2(1,2)-dinenzenacyclononaphane-9-yl)pyridine 1-oxide] | 121 | 3.2 | –

Further lines, with some results ahead:

Row | Ki [1, 3] [nM] | Ki [2] [nM] | Structure (SMILES) | Ki [1] [nM]
17 | 1.87 | 0.21 | COC(=O)Nc1ccc2c(c1)NC(=O)CCCCC(c1ccc(-c3c(F)cccc3OC(F)F)c[n+]1[O-])c1nc-2c(C2CC2)[nH]1 (single isomer, unassigned) [Example 113-a, (Z)-2-(1^5-cyclopropyl-2^4-((methoxycarbonyl)amino)-4-oxo-1^1H-3-aza-1(4,2)-imidazola-2(1,2)-benzenacyclononaphane-9-yl)-5-(2-(difluoromethoxy)-6-fluorophenyl)pyridine 1-oxide] | –
18 | 14.4 | 3 | COC(=O)Nc1ccc2c(c1)NC(=O)CC1CC1CC(c1ccc(-c3c(F)ccc(Cl)c3F)c[n+]1[O-])c1nc-2c[nH]1 (racemic) [Example 153] | –
19 | 0.43 | 0.14 | COC(=O)Nc1ccc2c(c1)NC(=O)CCCCC(c1ccc(-c3cc(Cl)ccc3OC(F)F)c[n+]1[O-])c1nc-2c[nH]1 (single isomer, unassigned) [Example 102-a, (Z)-5-(5-Chloro-2-(difluoromethoxy)phenyl)-2-(2^4-((methoxycarbonyl)amino)-4-oxo-1^1H-3-aza-1(4,2)-imidazola-2(1,2) -benzenacyclononaphane-9-yl)pyridine 1-oxide] | –
20 | 3.9 | 0.34 | COC(=O)Nc1ccc2c(c1)NC(=O)CCCCC(c1ccc(-c3c(F)cccc3OC(F)F)c[n+]1[O-])c1nc-2c[nH]1 (single isomer, unassigned) [Example 101-a, (Z)-5-(2-(Difluoromethoxy)-6-fluorophenyl)-2-(2^4-((methoxycarbonyl)amino)-4-oxo-1^1H-3-aza-1(4,2)-imidazola-2(1,2) -benzenacyclononaphane-9-yl)pyridine 1-oxide] | –
21 | 2.44 | 0.15 | CCc1[nH]c2nc1-c1ccc(NC(=O)OC)cc1NC(=O)CCCC[C@@H]2c1ccc(-c2c(F)cccc2OC(F)F)c[n+]1[O-] (single isomer, unassigned) [Example 127] | –
22 | 22.2 | 0.35 | COC(=O)Nc1ccc2c(c1)NC(=O)CCCC[C@H](c1ccc(-c3cc(Cl)ccc3-n3cccn3)c[n+]1[O-])c1nc-2c(C)[nH]1 (single isomer, unassigned) [Example 139] | –
23 | 0.73 | 0.2 | COC(=O)Nc1ccc2c(c1)NC(=O)CCCC[C@H](c1ccc(-c3c(C(F)F)ccc(Cl)c3F)c[n+]1[O-])c1nc-2c(C)[nH]1 (single isomer, unassigned) [Example 124] | –
24 | 0.77 | 0.23 | CCOC(=O)Nc1ccc2c(c1)NC(=O)CCCCC(c1ccc(-c3c(F)ccc(Cl)c3F)c[n+]1[O-])c1nc-2c[nH]1 (single isomer, unassigned) [Example 109-a, (Z)-5-(3-chloro-2,6-difluorophenyl)-2-(2^4-((ethoxycarbonyl)amino)-4-oxo-1^1H-3-aza-1(4,2)-imidazola-2(1,2)-benzenacyclononaphane-9-yl)pyridine 1-oxide] | –
25 | 0.6 | 0.53 | COC(=O)Nc1ccc2c(c1)NC(=O)CCCCC(c1ccc(-c3c(F)ccc(Cl)c3F)c[n+]1[O-])c1nc-2c[nH]1 (single isomer, unassigned) [Example 96-a, (Z)-5-(3-chloro-2,6-difluorophenyl)-2-(2^4-((methoxycarbonyl)amino)-4-oxo-1^1H-3-aza-1(4,2)-imidazola-2(1,2)-benzenacyclononaphane-9-yl)pyridine 1-oxide] | –
